Results published in patent US20220226484A1, “THERAPEUTIC PEPTIDES” (COHBAR, INC., priority 2019, published 2022).
Non-standard residues stand in square brackets, D forms with d. Primed or numbered codes have the meaning given here. No end group written: not given here. PEG12′ = not defined here

Key:
[1] = test system: bleomycin-induced lung fibrosis in male C57BL/6 mice; assay: Therapeutic mouse model of idiopathic pulmonary fibrosis (bleomycin); format: in vivo; conditions: peptide 5 mg/kg/day intraperitoneal, nintedanib 60 mg/kg/day PO
Source text: The effect of the peptides on the progression of established lung fibrosis can be assessed by monitoring lung fibrosis, lung weight, inflammatory cells in bronchoalveolar lavage fluid (BALF), soluble collagen in BALF, and body weight change in a therapeutic mouse model of idiopathic pulmonary fibrosis. Lung fibrosis was induced in lungs of male C57BL/6 mice between the ages of 6 to 8 weeks by nasophayngeal administration of bleomycin (1.5 U/kg using bleomycin clinical formulation diluted in PBS). A control group of animals were administered saline by the nasopharyngeal route (no-bleomycin control group). After one week, bleomycin-treated animals were randomized to treatment groups (N=10 per group) by body weight and treated daily with vehicle control, nintedanib positive control (60 mg/kg/day PO) or peptide (5 mg/kg/day by intraperitoneal injection). After 14 days of treatment (Day 21), lungs were removed and weighed. The post-caval lobe was separated and snap frozen. The lungs were flushed with Hanks Buffer and bronchoalveolar lavage fluid (BALF) was harvested from each animal. Total BALF leukocyte were counted. Slides were prepared from the remaining BALF leukocytes, fixed and stained with May Geimsa stain and the differential counts were recorded manually. BALF was evaluated for soluble collagen using a Sircol assay. Lungs were fixed in 10% neutral buffered formalin (NBF) for histopathological analysis. Fibrosis was assessed by histopathological analysis of H&E stained mouse lungs using an Ashcroft scoring system.

[2] = test system: DSS-induced colitis in female C57BL/6NTac mice; assay: DSS-induced colitis mouse model of inflammatory bowel disease; format: in vivo; conditions: 3% DSS 8 days; peptides 10 mg/kg/day intraperitoneal; CsA 80 mg/kg/day oral; AUC over 8 days
Description: The effect of the peptides on inflammatory disease can be assessed by monitoring fecal blood, stool consistency, and body weight loss in a DSS-induced colitis mouse model. Colitis was induced in female C57BL/6NTac mice (9-11 weeks old) by continuous ad libitum oral administration of dextran sodium sulfate (DSS) 3% in sterile drinking water for 8 days. Control (No DSS) mice received sterile water instead of DSS solution. Peptides were administered intraperitoneally once daily at 10 mg/kg/day for 8 days in combination with oral DSS. […] Daily assessments included body weight loss score, fecal blood score, stool consistency score, and composite disease activity index (DAI) score, based on the first three parameters combined. Scores recorded on each day over 8 days were used to calculate area under the curve (AUC) values for each endpoint in individual animals.

3T3-L1 Mouse Adipocytes = assay: Insulin-dependent effect on free fatty acid levels in cultured mouse adipocytes; format: cell-based; conditions: 3 hours
Description: The effect of the peptides on fatty acid metabolism was assessed in the absence and presence of insulin using an assay of free fatty acid levels in cultured cells such as mouse adipocytes. Peptides were initially prepared as 10 mM stock in DMSO and used at a final concentration of 10 μM (0.1% DMSO). […] Insulin (0.25 nM) was used as a partial inhibitor and insulin (10 nM) was used as a potent inhibitor of isoproterenol stimulated fatty acid production. Mouse 3T3-L1 cells purchased from ZenBio (Research Triangle Park, N.C.) were seeded at 3,000 cells per well on 96-well plates in Pre-Adipocyte Medium (Zen-Bio) and grown to confluence at 37° C. in a humidified atmosphere of 5% CO2/95% air. Two days after confluence, cells were placed in Adipocyte Differentiation Medium (Zen-Bio) and cultured for three additional days at 37° C. in a humidified atmosphere of 5% CO2/95% air. The culture medium was then partially replaced with Adipocyte Maintenance Medium (Zen-Bio) and the cells maintained at 37° C. in a humidified atmosphere of 5% CO2/95% air with partial medium replacement every other day. At 12 day of differentiation, 96-well cultures were transferred to Adipocyte Maintenance Medium without insulin and placed at 37° C. in a humidified atmosphere of 5% CO2/95% air for two days. Following this incubation period, the medium was removed from 14 day differentiated cultures and replaced with Assay Buffer (Zen-Bio) containing peptides (10 μM), insulin (0.25 nM or 10 nM), isoproterenol (0.1 nM) as appropriate. […] isoproterenol was added to all wells except untreated controls. Insulin at 0.1 nM and 10 nM was added to control wells. Peptides (10 μM) in the absence or presence of insulin (0.25 nM) were added to test wells. Cells in the presence of compounds were placed at 37° C. in a humidified atmosphere of 5% CO2/95% air for 3 hours. At the end of the final 3 h incubation, conditioned assay buffer was removed from each well and place in a fresh 96-well plate for quantitation of free fatty acid content. Free fatty acid concentrations in the assay buffer samples were determined using a Free Fatty Acid Assay kit (Zen-Bio) according to the manufacturer's instructions using a Cytation 3 plate reader at 540 nm (BioTek, Winooski, VD. Absorbance values were corrected for untreated background and expressed as a percent of isoproterenol (0.1 nM) treated control cells for peptides alone or isoproterenol (0.1 nM)+insulin (0.25 nM) for peptides in presence of insulin (0.25 nM). Treatment with isoproterenol […] alone was used as the free fatty acid level stimulatory control. The relative standard deviation of the isoproterenol control was <10%. […] Free fatty acid levels for insulin (10 nM) treatment were <5% of the isoproterenol control value. Free fatty acid levels for insulin (0.25 nM) treatment were 60-80% of the isoproterenol control value.

H4IIE Rat Hepatoma Cells = assay: Insulin-dependent effect on glucose production by cultured rat liver cells; format: cell-based; conditions: 24 hour
Description: The effect of the peptides on glucose production was assessed in the absence and presence of insulin using an assay of glucose levels in cultured cells such as rat hepatocytes. Peptides were initially prepared as 10 mM stock in DMSO and used at a final concentration of 10 μM (0.1% DMSO). Insulin (800 pM) was used as a partial inhibitor of glucose production. H4-IIE cells purchased from ATCC (Manassas, Va.) were seeded at 100,000 cells/well in standard medium (DMEM/high glucose+10% FBS+1× Glutamax+antibiotics) on 96-well plates and allowed to adhere overnight at 37° C. in a humidified atmosphere of 5% CO2/95% air. Approximately 24 h after seeding, the medium was removed, cells rinsed with glucose free DMEM, and Glucose Production Medium (glucose free DMEM+2 mM sodium pyruvate+10 mM sodium lactate) was added. The cultures were placed at 37° C. in a humidified atmosphere of 5% CO2/95% air overnight. The next morning, the medium was removed and fresh Glucose Production Medium containing compounds was added. Insulin at 800 pM was added to control wells. Peptides (10 μM) in the absence or presence of insulin (800 pM) were added to test wells. Cells in the presence of compounds were placed at 37° C. in a humidified atmosphere of 5% CO2/95% air overnight. After 24 hour incubation, conditioned medium from each well was transferred to a fresh 96-well plate for quantitation of glucose content. Quantitation of glucose levels was determined using an Amplex Red Glucose Assay kit (Abacm; Cambridge, Mass.) according to the manufacturer's instructions using a Cytation 3 plate reader at 570 nm (BioTek, Winooski, Vt.). Absorbance values were expressed as a percent of untreated control cells (maximum glucose production) for peptide alone samples or insulin (800 pM) for peptides in the presence of insulin (800 pM. Glucose levels for insulin (800 pM) treatment were ˜80-90% of the untreated control values. The results are reported in Table 15.

## COC(=O)c1ccc2c(c1)NC(=O)/C2=C(\Nc1ccc(N(C)C(=O)CN2CCN(C)CC2)cc1)c1ccccc1 [Nintedanib, nintedanib, reference compound]
[1]; Day 21, 14 days of treatment
  Mean (SEM) Leukocyte Count in BALF (Percent of Bleomycin Control): 62.4 (6.08) Percent
  Mean (SEM) Lung Weight (Percent of Bleomycin Control): 75.2 (6.04) Percent
  Mean (SEM) Percent Body Weight Change from Baseline: −7.95 (6.09) Percent
[1]; Sircol assay, Day 21
  Mean (SEM) Collagen Content in BALF (Percent of Bleomycin Control): 44.0 (6.48) Percent
[1]; histopathology, Day 21
  Mean (SEM) Ashcroft Score (Percent of Bleomycin Control): 78.70 (9.72) Percent

## RVIRACLGVGLLGDL(dA)GK{PEG12} [SEQ ID NO: 29] (RVIRACLGVGLLGDL[dA]GK(PEG12′))
[2]
  Mean (SEM) Body Weight Loss Score AUC: 2.10 (0.76)
  Mean (SEM) Composite Disease Activity Index (DAI) Score AUC: 19.8 (1.99)
  Mean (SEM) Fecal Blood Score AUC: 12.8 (1.04)
  Mean (SEM) Stool Consistency Score AUC: 5.05 (0.78)

## RVIRACLGVGLLGDL(dA)GK{PEG12} [SEQ ID NO: 30] (RVIRACLGVGLLGDL[dA]GK(PEG12′); not fully specified; printed as RVIRACLGVGLLGDL(dA)GK{PEG12}) [possibly the dimer of this chain]
[2]
  Mean (SEM) Body Weight Loss Score AUC: 0.95 (0.69)
  Mean (SEM) Composite Disease Activity Index (DAI) Score AUC: 14.9 (0.86)
  Mean (SEM) Fecal Blood Score AUC: 9.30 (0.44)
  Mean (SEM) Stool Consistency Score AUC: 4.65 (0.48)

## RVIRMCLNNGLNGEL(dA)G (RVIRMCLNNGLNGEL[dA]G) [SEQ ID NO: 22]
3T3-L1 Mouse Adipocytes; peptide 10 μM + insulin 0.25 nM, percent of isoproterenol (0.1 nM)+insulin (0.25 nM)
  Free Fatty Acid Levels, MEAN % ISO, +Insulin: 25.3%
3T3-L1 Mouse Adipocytes; peptide 10 μM alone, percent of isoproterenol (0.1 nM) treated control cells
  Free Fatty Acid Levels, MEAN % ISO, −Insulin: 93.6%
H4IIE Rat Hepatoma Cells; peptide 10 μM + insulin 800 pM, percent of insulin (800 pM)
  Glucose Levels, MEAN % Control, +Insulin: 0.5%
H4IIE Rat Hepatoma Cells; peptide 10 μM alone, percent of untreated control cells
  Glucose Levels, MEAN % Control, −Insulin: -0.4%
